The record followed here is article PMC10758829 (Heliyon, 2023).

In data set [1] the target is dipeptidyl peptidase IV (DPP-IV) (Homo sapiens, UniProt P27487). As to the kind of experiment: Gly-Pro-pNA chromogenic assay with recombinant enzyme. The class given is biochemical.
The test system of data set [2] is NCC(=O)N1CCC[C@H]1C(=O)Nc1ccc([N+](=O)[O-])cc1. As to the kind of experiment: purified protein. The class given is biochemical, Homo sapiens.

dipeptidyl peptidase IV (DPP-IV), sequence (P27487 39-766): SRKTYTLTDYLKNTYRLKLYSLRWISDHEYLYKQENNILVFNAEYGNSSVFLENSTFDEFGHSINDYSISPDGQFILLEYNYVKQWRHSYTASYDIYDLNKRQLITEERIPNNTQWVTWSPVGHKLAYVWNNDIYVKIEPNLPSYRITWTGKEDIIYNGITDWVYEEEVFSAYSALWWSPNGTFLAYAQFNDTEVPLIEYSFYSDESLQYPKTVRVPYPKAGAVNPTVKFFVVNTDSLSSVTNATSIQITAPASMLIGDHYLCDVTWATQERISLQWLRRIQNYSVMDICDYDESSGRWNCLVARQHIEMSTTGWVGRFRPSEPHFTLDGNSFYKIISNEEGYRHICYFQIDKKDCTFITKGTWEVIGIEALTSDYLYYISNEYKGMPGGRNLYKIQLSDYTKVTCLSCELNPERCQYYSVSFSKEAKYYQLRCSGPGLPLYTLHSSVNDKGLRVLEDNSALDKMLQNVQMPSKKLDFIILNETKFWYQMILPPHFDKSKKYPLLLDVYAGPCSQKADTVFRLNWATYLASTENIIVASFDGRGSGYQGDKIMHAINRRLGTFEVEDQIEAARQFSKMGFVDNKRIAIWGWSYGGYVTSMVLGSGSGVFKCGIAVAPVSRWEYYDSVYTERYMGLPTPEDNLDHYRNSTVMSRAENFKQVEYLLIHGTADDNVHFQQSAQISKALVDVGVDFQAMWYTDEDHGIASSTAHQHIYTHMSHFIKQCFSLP

As for `C=C(C)[C@@H]1CCC(C)=C[C@H]1c1c(O)cc(CCCCC)cc1O` [CBD, cannabidiol], the IC50 (usually the midpoint of a concentration-inhibition curve) in data set [1] was 21.9 µM.

Regarding “dipeptidyl peptidase IV (DPP-IV) (Homo sapiens)”, the Vmax (as a rule, the rate approached at saturating substrate) in data set [2] amounted to 1200 µM/min.

Turning to `CCCCCc1cc(O)c(C/C=C(\C)CCC=C(C)C)c(O)c1` [CBG, cannabigerol], in data set [1], the IC50 is 20.2 µM.

On to `CCCCCc1cc(O)c2c(c1)OC(C)(C)c1ccc(C)cc1-2` [CBN, cannabinol], for which, in data set [1], the IC50 is 12.9 µM.
